Values of other authors as cited in US20240000752A1, “MICROSUSPENSION AGAINST PARASITES AND METHOD FOR OBTAINING SAME” (Ipanema Industria de Productos Veterinarios Ltda, priority 2020, published 2024).

Legend:
[1] = tested on: Ostertagia ostertagi Cooperia pectinata, Cooperia punctata, Trichostrongylus axei, Trichostrongylus colubriformis, Oesophagostomum radiatum, Haemonchus placei …

## CCC[S+]([O-])c1ccc2[nH]c(NC(=O)OC)nc2c1 (stereo not drawn) [albendazole sulfoxide]
other
  pka: 7.8
  solubility in water: low solubility in water

## CO[C@H]1C[C@H](O[C@H]2[C@H](C)O[C@@H](O[C@@H]3/C(C)=C/C[C@@H]4C[C@@H](C[C@]5(C=C[C@H](C)[C@@H](C6CCCCC6)O5)O4)OC(=O)[C@@H]4C=C(C)[C@@H](O)[C@H]5OC/C(=C\C=C\[C@@H]3C)[C@]54O)C[C@@H]2OC)O[C@@H](C)[C@@H]1O [doramectin]
[1]
  efficacy against endoparasites and ectoparasites: effective
